# Experimental data taken from US20220169622A1, “AMPLIFICATION OF NUCLEIC ACIDS” (Abbott Molecular Inc., priority 2018, published 2022).
# “Also recorded” adds a separate entry of the source.
# What was measured:
# Assay type in all cases: biochemical
# [1] = system: non-specific amplification products; test: RT-PCR without HIV-1 target RNA after master mix incubation at 2 to 8° C. for 16 hours, EVA Green (Example 2); settings: 0.0015, 0.005, 0.01% (w/w) MIT; master mix incubated at 2 to 8° C. for 16 hours; no HIV-1 target RNA; compared to reactions without MIT
# Procedure: During the development of embodiments of the technology provided herein, experiments were conducted to simulate the preparation of bulk RT-PCR reagents by a commercial manufacturing process. In particular, prototype HIV-1 assay master mixes comprising 0, 0.015, 0.05, and 0.1% (w/w) PROCLIN 950 (corresponding to 0, 0.0015, 0.005, and 0.01% (w/w) MIT concentrations, respectively) were incubated at 2 to 8° C. for 16 hours. RT-PCR was then performed with each master mix in the absence of HIV-1 target RNA (2 replicates per condition). The fluorescent DNA-intercalating dye. EVA Green was included in each reaction to monitor the accumulation of non-specific amplification products. Realtime EVA Green fluorescence signals from RT-PCR reactions comprising 0, 0.015, 0.05, and 0.1% (w/w) PROCLIN 950 are shown in FIG. 2.
# [2] = system: HIV-1 target RNA; test: Prototype HIV-1 assay RT-PCR with 50 copies of target RNA (Example 3); settings: 0.015% (w/w) PROCLIN 950 (0.0015% (w/w) MIT); 50 copies of HIV-1 target RNA; compared to no PROCLIN 950
# Procedure: During the development of embodiments of the technology provided herein, experiments were conducted to test RT-PCR in the presence of MIT in a prototype HIV-1 assay master mix. Prototype HIV-1 assay master mixes comprising 50 copies of HIV-1 target RNA and either 0.015% (w/w) PROCLIN 950 (0.0015% (w/w) MIT) or comprising no PROCLIN 950 were tested by RT-PCR (8 replicates each condition). HIV-specific realtime fluorescence signals from HIV-1 RT-PCR reactions comprising 0 or 0.015% (w/w) PROCLIN 950 are shown in FIG. 3.
# [3] = system: Chlamydia trachomatis; test: Prototype CT/NG assay RT-PCR with 0.1 inclusion forming units (Example 4); settings: 0.015% (w/w) PROCLIN 950 (0.0015% (w/w) MIT); 0.1 inclusion forming units of Chlamydia trachomatis; compared to no PROCLIN 950
# Procedure: During the development of embodiments of the technology provided herein, experiments were conducted to test RT-PCR in the presence of MIT in a prototype CT/NG assay master mix. Prototype CT/NG assay master mixes comprising 0.1 inclusion forming units of Chlamydia trachomatis and either 0.015% (w/w) PROCLIN 950 (0.0015% (w/w) MIT) or comprising no PROCLIN 950 were tested by RT-PCR (8 replicates each condition). CT-specific realtime fluorescence signals from CT/NG RT-PCR reactions comprising 0 or 0.015% (w/w) PROCLIN 950 (0.0015% (w/w) MIT) are shown in FIG. 4. […] Further, the prototype CT/NG assay uses different primer and probe sets than the prototype HIV-1 assay described in Example 3.
# [4] = system: non-specific amplification products; test: RT-PCR without template, EVA Green monitoring of non-specific amplification products (Example 1); settings: 0.0015, 0.005, 0.01% (w/w) MIT (0.015, 0.05, 0.1% (w/w) PROCLIN 950); no template; compared to reactions without MIT
# Excerpt: The primers and probes in the reaction mixtures target HIV-1 nucleic acids. The fluorescent DNA-intercalating dye, EVA Green, was included in each reaction to monitor the accumulation of non-specific amplification products. Realtime EVA Green fluorescence signals from RT-PCR reactions comprising […], 0.05. and 0.1% (w/w) PROCLIN 950 are shown in FIG. 1.
smiles,measurement,setting,value
"Cn1sccc1=O [MIT, 2-methyl-4-isothiazolin-3-one]",non-specific product formation (EVA Green signal),[1],reduces the accumulation of non-specific product during prolonged storage; also recorded: decreased levels of non-specific product formation
same,HIV-specific realtime fluorescence signal (RT-PCR performance),[2],enhances RT-PCR performance
same,CT-specific realtime fluorescence signal (RT-PCR performance),[3],enhances RT-PCR performance
same,non-specific product formation (EVA Green signal),[4],reduces the accumulation of non-specific product; also recorded: decreased levels of non-specific product formation
